Laboratory results: patent US20250034211A1, “C-TERMINAL EXTENDED P53 ACTIVATOR CROSSLINKED PEPTIDOMIMETIC MACROCYCLES AGAINST MDM2/MDMX” (Merck Sharp & Dohme LLC, priority 2021, published 2025)
In brackets after ≈: the same amount, converted by molar mass. Where a SMILES comes first, the peptide text is derived from it. Bridges are numbered along the chain shown (N, C = ends). [ ]: non-standard residue; d: D form. Lys(N3) = [N-]=[N+]=NCCCC[C@H](N)C(=O)O; R8 = C=CCCCCCC[C@@](C)(N)C(=O)O; Cba = N[C@@H](CC1CCC1)C(=O)O; S5 = C=CCCC[C@](C)(N)C(=O)O; βAla = NCCC(=O)O

Legend:
[1] = tested on: Jump-In T-REx CHO-K1 BLA cells; assay: Tetracycline beta-lactamase reporter gene assay (counter screen); format: cell-based
Experimental: Based on Jump-In™ T-REx™ CHO-K1 BLA cells and contain a stably integrated β-lactamase under the control of an inducible CMV promoter. Cells were seeded into a 384-well plate a density of 4000 cells per well. Cells were maintained in Dulbecco's Minimal Eagle Medium (DMEM) with 10% fetal bovine serum (FBS), Blasticidin and Penicillin/Streptomycin. The cells were incubated for 24 hours, followed by cell media removal and replacement with Opti-MEM either containing 10% FBS or 0% FBS. Peptides were then dispensed to each well using a liquid handler, ECHO 555 and incubated for 4/16 hours. Final working concentration of DMSO was 0.5%. β-Lactamase activity was detected using the ToxBLAzer Dual Screen (Invitrogen) as per manufacturer's instructions. Measurements were carried out using Envision multiplate reader (Perkin Elmer). Counter Screen activity was defined as the amount of 0-lactamase activity induced by tetracycline.

[2] = Circular dichroism (CD) helicity; format: physicochemical
Experimental: The dried peptide was reconstituted in a buffer containing 1 mM HEPES pH 7.4 and 5% methanol to a concentration of 1 mM. The peptide sample was placed in a quartz cuvette with a path length of 0.2 cm and a CD spectrum was recorded from 300 to 190 nm at 25° C. using the Chirascan-plus qCD machine (Applied Photophysics). The actual concentration of the peptide was determined by the absorbance of the peptide at […]. An estimate of the secondary structure components of the peptide was carried out by converting the CD spectrum to mean residue ellipticity before deconvoluting using the CDNN software (distributed by Applied Photophysics). All experiments were done in duplicate.

[3] = tested on: HCT116 cells; assay: Lactate dehydrogenase release assay (LDH); format: cell-based
Experimental: HCT116 cells were seeded into a 384-well plate at a density of 8000 cells per well. Cells were maintained in McCoy's 5A Medium with 10% fetal bovine serum (FBS), Blasticidin and Penicillin/Streptomycin. The cells were incubated overnight followed by the removal of cell media and the addition of Opti-MEM Medium without FBS. Cells were then treated with peptides for 4/16 hours in Opti-MEM either in 10% FBS or serum free. Final concentration of DMSO was 0.5%. Lactate dehydrogenase release was detected using CytoTox-ONE Homogenous Membrane Integrity Assay Kit (Promega) as per manufacturer's instructions. Measurements were carried out using Tecan plate reader. Maximum LDH release was defined as the amount of LDH released induced by the lytic peptide (iDNA79) and used to normalize the results.

[4] = Solubility (PBS, pH 7); settings: PBS, pH 7
[5] = molecular target: T1, MDM2 (1-125; SEQ ID NO 14) (Homo sapiens, UniProt Q00987); assay: MDM2 binding assay (fluorescence anisotropy competition, FP)
T1 construct: GST (N); His6 (internal); TEV cleavage site ENLYFQG (internal); made in house; host or cells: E. coli BL21 (DE3) Rosetta T1R
T1 sequence (Q00987 with tags, fused parts or gaps): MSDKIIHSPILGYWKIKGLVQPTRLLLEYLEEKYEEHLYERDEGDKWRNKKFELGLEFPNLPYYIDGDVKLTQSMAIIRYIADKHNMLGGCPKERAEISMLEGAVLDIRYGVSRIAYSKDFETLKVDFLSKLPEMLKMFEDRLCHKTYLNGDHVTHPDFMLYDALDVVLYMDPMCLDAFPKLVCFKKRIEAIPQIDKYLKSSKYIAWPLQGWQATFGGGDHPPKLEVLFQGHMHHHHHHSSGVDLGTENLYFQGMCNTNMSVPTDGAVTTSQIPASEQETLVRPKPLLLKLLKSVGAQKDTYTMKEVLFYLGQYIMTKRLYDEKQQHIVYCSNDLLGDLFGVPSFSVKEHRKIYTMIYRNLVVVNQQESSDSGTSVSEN
Experimental: [P] is the protein concentration (MDM2), [L] is the labeled peptide concentration, r is the anisotropy measured, r0 is the anisotropy of the free peptide, rb is the anisotropy of the MDM2-FAM-labeled peptide complex, Kd is the dissociation constant, [L]t is the total FAM labeled peptide concentration, and [P]t is the total MDM2 concentration. […] The competing molecules were then titrated against the complex of the FAM-labeled peptide and protein. Apparent Kd values were determined by fitting the experimental data to the equations shown below:
[L]st and [L]t denote labeled ligand and total unlabeled ligand input concentrations, respectively. Kd2 is the dissociation constant of the interaction between the unlabeled ligand and the protein. In all competition experiments, it is assumed that [P]t>[L]st, otherwise considerable amounts of free labeled ligand would always be present and would interfere with measurements. […] The FAM-labeled peptide was dissolved in dimethyl sulfoxide (DMSO) at 1 mM and diluted into experimental buffer. Readings were carried out with an Envision Multilabel Reader (PerkinElmer). […] All titrations were carried out in triplicate. Curve-fitting was carried out using Prism 4.0 (GraphPad). […] Negative control titrations of the ligands under investigation were also carried out with the fluorescently labeled peptide (in the absence of MDM2) to ensure no interactions were occurring between the ligands and the FAM-labeled peptide.

[6] = tested on: p53 null Ca Ski; settings: 72 h, 10% serum
[7] = HPLC LogD
[8] = tested on: HCT116

## CC(=O)N[C@@H](CCCCN=[N+]=[N-])C(=O)NCCC(=O)N[C@@H](CC(C)C)C(=O)N[C@H](C(=O)N[C@@H](Cc1ccccc1)C(=O)N[C@]1(C)CCCCCCC=CCCC[C@@](C)(C(=O)N[C@@H](C)C(=O)N[C@@H](C)C(=O)N[C@@H](C)C(=O)N[C@@H](C)C(=O)N[C@@H](C)C(=O)N[C@H](C)C(N)=O)NC(=O)[C@H](CC2CCC2)NC(=O)[C@H](CCC(N)=O)NC(=O)[C@H](C)NC(=O)[C@H](Cc2c[nH]c3ccccc23)NC(=O)[C@H](Cc2ccc(O)cc2)NC(=O)[C@H](CCC(=O)O)NC1=O)[C@@H](C)O [Macrocycle 3, Ac-K(N3)-betaAla-L-T-F-X1a-E-Y-W-A-Q-Cba-X2a-AAAAA-(D-Ala)-NH2(olefinstaple from X1ato X2a)] (Ac-[Lys(N3)][βAla]LTF[R8]EYWAQ[Cba][S5]AAAAA[dA]-NH2; staple 6-13)
[1]; 0% FBS, 4 h
  EC50: > 50 µM
[1]; 10% FBS, 16 h
  EC50: > 50 µM
[2]
  CD (% helicity): 47%
[3]; 0% FBS, 4 h
  EC50: > 50 µM
[3]; 10% FBS, 16 h
  EC50: > 50 µM
[4]
  solubility: 157 µM (≈ 340 µg/mL)
[5]
  Kd: 0.031 µM
[6]
  p53 null Ca Ski proliferation % Max: 10%
[7]
  logD: 3.15
[8]; 72 h, 10% serum
  HCT116 proliferation % Max: 71%
[8]; read-out: cellular efficacy in cell proliferation HTC116 p53 positive control cell lines
  EC50: 0.42 µM
